{"source": "ChEMBL document CHEMBL1134813", "about": "“Inhibition of HIV-1 infection by synthetic peptide analogues derived from the NH(2)-Terminal extracellular region of GPR1” (Bioorg Med Chem Lett, 2001)", "key": {"C8166 [1]": {"test_system": "C8166", "assay": "Anti HIV-1 activity was evaluated through C8166/GUN1WT syncytium formation assay at a concentration of 1000 ug/mL", "format": "functional, Homo sapiens"}, "[2]": {"assay": "Anti HIV-1 activity measured in terms of cytotoxicity against NP-2/CD4/GPR1 cells infected with HIV-1 (GUN1V)", "format": "functional, cell-based, Homo sapiens"}, "[3]": {"assay": "Anti HIV-1 activity measured in terms of cytotoxicity against NP-2/CD4/CXCR4 cells infected with HIV-1 (IIIBstrain)", "format": "functional, cell-based, Homo sapiens"}, "C8166 [4]": {"test_system": "C8166", "assay": "Anti HIV-1 activity was evaluated through C8166/GUN1WT syncytium formation assay at a concentration of 50 ug/mL", "format": "functional, Homo sapiens"}, "C8166 [5]": {"test_system": "C8166", "assay": "Anti HIV-1 activity was evaluated through C8166/GUN1WT syncytium formation assay at a concentration of 200 ug/mL", "format": "functional, Homo sapiens"}, "[6]": {"assay": "Anti HIV-1 activity measured in terms of cytotoxicity against NP-2/CD4/CCR5 cells infected with HIV-1(GUN1WT)", "format": "functional, cell-based, Homo sapiens"}, "[7]": {"assay": "Anti HIV-1 activity measured in terms of cytotoxicity against NP-2/CD4/CXCR4 cells infected with HIV-1(GUN1WT)", "format": "functional, cell-based, Homo sapiens"}, "C8166 [8]": {"test_system": "C8166", "assay": "Anti HIV-1 activity was evaluated through C8166/GUN1WT syncytium formation assay at a concentration of 0 ug/mL", "format": "functional, Homo sapiens"}}, "note": "Where a SMILES comes first, the peptide text is derived from it. [ ]: non-standard residue; d: D form. The star is where a group is joined. sY = N[C@@H](Cc1ccc(OS(=O)(=O)O)cc1)C(=O)O; X1 = O=S(=O)(O)O*"}
{"smiles": "COC(=O)C(=O)N1CCC[C@H]1C(=O)N[C@H](Cc1ccccc1)C(=O)Nc1ccccc1OCC(=O)N[C@@H](Cc1ccc(O)cc1)C(=O)N[C@@H](CO)C(=O)N[C@@H](Cc1ccc(O)cc1)C(=O)N[C@@H](CC(=O)O)C(=O)N[C@@H](CC(C)C)C(=O)N[C@@H](CC(=O)O)C(=O)N[C@@H](Cc1ccc(O)cc1)C(=O)N[C@@H](Cc1ccc(O)cc1)C(=O)O", "values": [{"measurement": "Activity", "setting": "C8166 [1]", "result": 121}, {"measurement": "IC50", "setting": "[2]; Homo sapiens", "result": 660, "unit": "µM"}, {"measurement": "IC50", "setting": "[3]; Homo sapiens", "result": "> 1000", "unit": "µM"}, {"measurement": "Activity", "setting": "C8166 [4]", "result": 215}, {"measurement": "Activity", "setting": "C8166 [5]", "result": 222}, {"measurement": "IC50", "setting": "[6]; Homo sapiens, CCR5", "result": "> 1000", "unit": "µM"}, {"measurement": "IC50", "setting": "[7]; Homo sapiens", "result": "> 1000", "unit": "µM"}]}
{"smiles": "CC(C)C[C@H](NC(=O)[C@H](CC(=O)OS(=O)(=O)O)NC(=O)[C@H](Cc1ccc(OS(=O)(=O)O)cc1)NC(=O)[C@H](COS(=O)(=O)O)NC(=O)[C@@H](N)Cc1ccc(OS(=O)(=O)O)cc1)C(=O)N[C@@H](CC(=O)OS(=O)(=O)O)C(=O)N[C@@H](Cc1ccc(OS(=O)(=O)O)cc1)C(=O)N[C@@H](Cc1ccc(OS(=O)(=O)O)cc1)C(=O)O.CCN(CC)CC.CCN(CC)CC.CCN(CC)CC.CCN(CC)CC.CCN(CC)CC.CCN(CC)CC.CCN(CC)CC", "values": [{"measurement": "Activity", "setting": "C8166 [1]", "result": 4}, {"measurement": "IC50", "setting": "[2]", "result": 4.5, "unit": "µM"}, {"measurement": "IC50", "setting": "[3]", "result": 18, "unit": "µM"}, {"measurement": "Activity", "setting": "C8166 [4]", "result": 258}, {"measurement": "Activity", "setting": "C8166 [5]", "result": 52}, {"measurement": "IC50", "setting": "[6]; np-2/cd4/ccr5", "result": 42, "unit": "µM"}, {"measurement": "IC50", "setting": "[7]", "result": 10, "unit": "µM"}]}
{"smiles": "COC(=O)C(=O)N1CCC[C@H]1C(=O)N[C@H](Cc1ccccc1)C(=O)Nc1ccccc1OCC(=O)N[C@@H](Cc1ccc(O)cc1)C(=O)N[C@@H](CC(=O)O)C(=O)N[C@@H](CC(C)C)C(=O)N[C@@H](CC(=O)O)C(=O)N[C@@H](Cc1ccc(O)cc1)C(=O)N[C@@H](Cc1ccc(O)cc1)C(=O)O", "values": [{"measurement": "Activity", "setting": "C8166 [1]", "result": 55}, {"measurement": "IC50", "setting": "[2]; Homo sapiens", "result": 100, "unit": "µM"}, {"measurement": "IC50", "setting": "[3]; Homo sapiens", "result": 150, "unit": "µM"}, {"measurement": "Activity", "setting": "C8166 [4]", "result": 155}, {"measurement": "Activity", "setting": "C8166 [5]", "result": 100}, {"measurement": "IC50", "setting": "[6]; Homo sapiens, CCR5", "result": 120, "unit": "µM"}, {"measurement": "IC50", "setting": "[7]; Homo sapiens", "result": 100, "unit": "µM"}, {"measurement": "Activity", "setting": "C8166 [8]", "result": 192}]}
{"smiles": "CC(C)C[C@H](NC(=O)[C@H](CC(=O)O)NC(=O)[C@H](Cc1ccc(O)cc1)NC(=O)[C@H](CO)NC(=O)[C@@H](N)Cc1ccc(O)cc1)C(=O)N[C@@H](CC(=O)O)C(=O)N[C@@H](Cc1ccc(O)cc1)C(=O)N[C@@H](Cc1ccc(O)cc1)C(=O)O", "note": "(H-YSYDLDYY-OH)", "values": [{"measurement": "Activity", "setting": "C8166 [1]", "result": 133}, {"measurement": "IC50", "setting": "[2]; Homo sapiens", "result": 660, "unit": "µM"}, {"measurement": "IC50", "setting": "[3]; Homo sapiens", "result": "> 1000", "unit": "µM"}, {"measurement": "Activity", "setting": "C8166 [4]", "result": 228}, {"measurement": "Activity", "setting": "C8166 [5]", "result": 252}, {"measurement": "IC50", "setting": "[6]; Homo sapiens, CCR5", "result": "> 1000", "unit": "µM"}, {"measurement": "IC50", "setting": "[7]; Homo sapiens", "result": "> 1000", "unit": "µM"}]}
{"smiles": "CC(C)C[C@H](NC(=O)[C@H](CC(=O)OS(=O)(=O)O)NC(=O)[C@@H](N)Cc1ccc(OS(=O)(=O)O)cc1)C(=O)N[C@@H](CC(=O)OS(=O)(=O)O)C(=O)N[C@@H](Cc1ccc(OS(=O)(=O)O)cc1)C(=O)N[C@@H](Cc1ccc(OS(=O)(=O)O)cc1)C(=O)O.CCN(CC)CC.CCN(CC)CC.CCN(CC)CC.CCN(CC)CC.CCN(CC)CC", "note": "(H-[sY]D(X1)LD(X1)[sY][sY]-OH)", "values": [{"measurement": "Activity", "setting": "C8166 [1]", "result": 0}, {"measurement": "IC50", "setting": "[2]; Homo sapiens", "result": 25, "unit": "µM"}, {"measurement": "IC50", "setting": "[3]; Homo sapiens", "result": 15, "unit": "µM"}, {"measurement": "Activity", "setting": "C8166 [4]", "result": 193}, {"measurement": "Activity", "setting": "C8166 [5]", "result": 52}, {"measurement": "IC50", "setting": "[6]; Homo sapiens, CCR5", "result": 55, "unit": "µM"}, {"measurement": "IC50", "setting": "[7]; Homo sapiens", "result": 65, "unit": "µM"}, {"measurement": "Activity", "setting": "C8166 [8]", "result": 215}]}
{"smiles": "CC(C)C[C@H](NC(=O)[C@H](CC(=O)OS(=O)(=O)O)NC(=O)[C@H](Cc1ccc(OS(=O)(=O)O)cc1)NC(=O)[C@H](COS(=O)(=O)O)NC(=O)[C@@H](N)Cc1ccc(OS(=O)(=O)O)cc1)C(=O)N[C@@H](CC(=O)OS(=O)(=O)O)C(=O)N[C@@H](Cc1ccc(OS(=O)(=O)O)cc1)C(=O)N[C@@H](Cc1ccc(OS(=O)(=O)O)cc1)C(=O)O", "values": [{"measurement": "Activity", "setting": "C8166 [1]", "result": 124}, {"measurement": "IC50", "setting": "[2]", "result": "> 1000", "unit": "µM"}, {"measurement": "IC50", "setting": "[3]", "result": "> 1000", "unit": "µM"}, {"measurement": "Activity", "setting": "C8166 [4]", "result": 231}, {"measurement": "Activity", "setting": "C8166 [5]", "result": 165}, {"measurement": "IC50", "setting": "[6]; np-2/cd4/ccr5", "result": "> 1000", "unit": "µM"}, {"measurement": "IC50", "setting": "[7]", "result": "> 1000", "unit": "µM"}]}
{"smiles": "CC(C)C[C@H](NC(=O)[C@H](CC(=O)O)NC(=O)[C@@H](N)Cc1ccc(O)cc1)C(=O)N[C@@H](CC(=O)O)C(=O)N[C@@H](Cc1ccc(O)cc1)C(=O)N[C@@H](Cc1ccc(O)cc1)C(=O)O", "note": "(H-YDLDYY-OH)", "values": [{"measurement": "Activity", "setting": "C8166 [1]", "result": 4}, {"measurement": "IC50", "setting": "[2]; Homo sapiens", "result": 42, "unit": "µM"}, {"measurement": "IC50", "setting": "[3]; Homo sapiens", "result": 350, "unit": "µM"}, {"measurement": "Activity", "setting": "C8166 [4]", "result": 188}, {"measurement": "Activity", "setting": "C8166 [5]", "result": 62}, {"measurement": "IC50", "setting": "[6]; Homo sapiens, CCR5", "result": 66, "unit": "µM"}, {"measurement": "IC50", "setting": "[7]; Homo sapiens", "result": 180, "unit": "µM"}]}
{"smiles": "CCN(CC)CC.CCN(CC)CC.CCN(CC)CC.CCN(CC)CC.CCN(CC)CC.CCN(CC)CC.CCN(CC)CC.CCN(CC)CC.COC(=O)C(=O)N1CCC[C@H]1C(=O)N[C@H](Cc1ccccc1)C(=O)Nc1ccccc1OCC(=O)N[C@@H](Cc1ccc(OS(=O)(=O)O)cc1)C(=O)N[C@@H](COS(=O)(=O)O)C(=O)N[C@@H](Cc1ccc(OS(=O)(=O)O)cc1)C(=O)N[C@@H](CC(=O)OS(=O)(=O)O)C(=O)N[C@@H](CC(C)C)C(=O)N[C@@H](CC(=O)OS(=O)(=O)O)C(=O)N[C@@H](Cc1ccc(OS(=O)(=O)O)cc1)C(=O)N[C@@H](Cc1ccc(OS(=O)(=O)O)cc1)C(=O)O", "values": [{"measurement": "Activity", "setting": "C8166 [1]", "result": 1}, {"measurement": "IC50", "setting": "[2]; Homo sapiens", "result": 4.1, "unit": "µM"}, {"measurement": "IC50", "setting": "[3]; Homo sapiens", "result": 10, "unit": "µM"}, {"measurement": "Activity", "setting": "C8166 [4]", "result": 219}, {"measurement": "Activity", "setting": "C8166 [5]", "result": 66}, {"measurement": "IC50", "setting": "[6]; Homo sapiens, CCR5", "result": 42, "unit": "µM"}, {"measurement": "IC50", "setting": "[7]; Homo sapiens", "result": 10, "unit": "µM"}]}
{"smiles": "CC(C)C[C@H](NC(=O)[C@H](CC(=O)OS(=O)(=O)[O-])NC(=O)[C@H](Cc1ccc(OS(=O)(=O)[O-])cc1)NC(=O)[C@H](COS(=O)(=O)[O-])NC(=O)[C@@H](N)Cc1ccc(OS(=O)(=O)[O-])cc1)C(=O)N[C@@H](CC(=O)OS(=O)(=O)[O-])C(=O)N[C@@H](Cc1ccc(OS(=O)(=O)[O-])cc1)C(=O)N[C@@H](Cc1ccc(OS(=O)(=O)[O-])cc1)C(=O)O.[Na+].[Na+].[Na+].[Na+].[Na+].[Na+].[Na+]", "values": [{"measurement": "Activity", "setting": "C8166 [1]", "result": 191}, {"measurement": "IC50", "setting": "[2]", "result": 660, "unit": "µM"}, {"measurement": "Activity", "setting": "C8166 [4]", "result": 235}, {"measurement": "Activity", "setting": "C8166 [5]", "result": 210}]}
{"smiles": "CCN(CC)CC.CCN(CC)CC.CCN(CC)CC.CCN(CC)CC.CCN(CC)CC.COC(=O)C(=O)N1CCC[C@H]1C(=O)N[C@H](Cc1ccccc1)C(=O)Nc1ccccc1OCC(=O)N[C@@H](Cc1ccc(OS(=O)(=O)O)cc1)C(=O)N[C@@H](CC(=O)OS(=O)(=O)O)C(=O)N[C@@H](CC(C)C)C(=O)N[C@@H](CC(=O)OS(=O)(=O)O)C(=O)N[C@@H](Cc1ccc(OS(=O)(=O)O)cc1)C(=O)N[C@@H](Cc1ccc(OS(=O)(=O)O)cc1)C(=O)O", "values": [{"measurement": "Activity", "setting": "C8166 [1]", "result": 12}, {"measurement": "IC50", "setting": "[2]; Homo sapiens", "result": 35, "unit": "µM"}, {"measurement": "IC50", "setting": "[3]; Homo sapiens", "result": 55, "unit": "µM"}, {"measurement": "Activity", "setting": "C8166 [4]", "result": 182}, {"measurement": "Activity", "setting": "C8166 [5]", "result": 88}, {"measurement": "IC50", "setting": "[6]; Homo sapiens, CCR5", "result": 60, "unit": "µM"}, {"measurement": "IC50", "setting": "[7]; Homo sapiens", "result": 80, "unit": "µM"}]}
